Laboratory results: PMC10630888, “Nuclear ERK1/2 signaling potentiation enhances neuroprotection and cognition via Importinα1/KPNA2” (EMBO Molecular Medicine, 2023)
Where “and” joins values, the source holds several entries; their conditions need not be identical. Equal entries are not always repeated.

Experiments:
[1] = tested on: c-Fos; test: Striatal c-Fos immunohistochemistry 1 h after single injection; format: in vivo, mouse; conditions: single injection 20 mg/kg i.p., individual mice
Description: (§1) Immunohistochemistry was performed as described in Papale et al ([2016]). Briefly, 1 h after blocking in 5% normal goat serum and 0.1% Triton X‐100 solution, free‐floating sections were incubated overnight at 4°C with one of the following primary antibodies: anti‐phospho‐p44/42 MAP kinase (Thr202/Tyr204) (1:200, Cell Signaling Technology #9101), anti‐phospho–Elk‐1 (Ser383) (1:100, Cell Signaling #9181), anti‐phospho‐Kv4.2 (Thr607)‐R (1:100, Santa Cruz sc22254‐R), anti‐phospho‐MSK‐1 (1:100 Cell Signaling Technology #9595), anti‐phospho‐MEK1/2 (Ser218/222) (1:100, sc‐7995 Santa Cruz Biotechnology), c‐Fos (1:100, sc‐52 Santa Cruz Biotechnology), tyrosine Hydroxylase (monoclonal 1:1,000, Sigma Aldrich, Italy) and anti‐DARPP‐32 (H3) (1:100, Santa Cruz Biotechnology, #sc‐271111) overnight at 4°C. […]
(§2) For in vivo immunohistochemistry experiments, images were acquired from the dorsal striatum using a Leica DM IRB microscope under a 20× objective. The number of p‐ERK, p‐MSK‐1, p‐ELK, p‐MEK‐1, p‐VG K+, c‐Fos, and DARPP‐32 positive cells was counted in 2–3 consecutive sections per mouse, bilaterally and averaged across the sections using the ImageJ software by a blind investigator to the condition. Estimation of nigral cell loss was assessed by quantifying the number of TH‐immunopositive neurons of the SNc in 360 μm‐spaced sections for each animal.

[2] = tested on: contextual fear memory; test: Contextual fear conditioning, rats, intra-hippocampal infusion; format: in vivo, rat; set-up: unit not given here; conditions: 2 mg/ml, 1.0 μl/side into dorsal hippocampus 20 min prior to conditioning, individual rats
Description: Lister Hooded male rats (280–350 g) were housed in pairs, in holding rooms maintained at 21°C on a reversed‐light cycle (12 h light/dark; lights on at 10:00 P.M.). All experiments were conducted in the dark period of the rats. RB5 and Scramble peptides were infused into dorsal hippocampus.
Steel double guide cannulae aimed at the dorsal hippocampus (AP ‐3.50, relative to bregma) were surgical implanted under anesthesia at least 1 week prior to behavioral training and microinfusions. Bilateral infusions with either 2 mg/ml Scramble or RB5, 20 min prior to conditioning (pH 7.0, 1.0 μl/side, rate = […]) via the chronically indwelling cannula were carried out in awake rats using a syringe pump, connected to injectors (28 gauge, projecting 1 mm beyond the guide cannulae) by polyethylene tubing.
Conditioning was performed in one of two distinct contexts. These contexts were designed to differ in a number of distinctive characteristics including size, spatial location, odor, and lighting. During the 3 min conditioning training trial, rats received a single scrambled footshock (0.5 mA for 2 s) 2 min after being placed into one of the conditioning contexts. All rats were returned to the home cages after conditioning. Retrieval tests 3 h (postretrieval short‐term memory, STM), or 2 days (long‐term memory, LTM) after recall again consisted of exposing the rat to the conditioning context for 2 min not delivering a foot shock.
(§3) For all protocols, freezing behavior served as a measure of conditioned fear to the context during the conditioning and retrieval tests.

[3] = tested on: 3-NP-induced striatal apoptosis; test: TUNEL assay in striatum, 3-NP model with RB5; format: in vivo, mouse; conditions: 7 days, individual mice
Description: The detection of apoptosis on cultured cells or tissue sections was carried out using the DeadEnd™ Colorimetric TUNEL System kit (Promega). Cultured cells were fixed in 4% PFA for 15 min at room temperature before undergoing TUNEL staining. Tissue sections were obtained from mice perfused with 4% PFA. Brains were subsequently stored in 30% sucrose overnight and cut into 35 μm‐thick slices using a freezing microtome. Slices were mounted on slides and processed for TUNEL staining. TUNEL was performed following the manufacturer's instructions. Briefly, slides were immersed in PBS for 5 min RT and then incubated for 25 min in a […] Proteinase K solution. Then, the slides were rinsed in 1× PBS, re‐fixed in 4% PFA for 5 min, and rinsed twice with 1× PBS. […] of equilibration buffer were added to each tissue section for 5–10 min followed by 1 h of incubation at 37°C in a humidified chamber with […] of rTdT reaction mix. After that, slides were immersed in 2× SSC solution in a Coplin jar for 15 min and washed twice in PBS 1× for 5 min. The endogenous peroxidase activity was blocked with 0.3% hydrogen peroxide for 5 min. The slides were rinsed twice in 1× PBS for 5 min and incubated for 30 min with Streptavidin HRP solution and finally DAB substrate was added to react for 10 min. A light microscope was used to acquire four representative fields per slide from cultured cells and 3–4 representative slices per mouse from all experimental groups. The number of TUNEL positive cells was counted using ImageJ software.
3‐NP (3‐Nitropropionic acid) (N5636, Sigma) was dissolved in distilled water to a concentration of 50 mg/ml (pH 7.4) and passed through a 0.2‐μm filter and kept at −80°C until use. The 3‐NP solution was administered i.p. once daily at a dose of 50 mg/kg either for 21 consecutive days in the LV‐injected mice or for 7 days in combination with RB5.

[4] = tested on: pMSK-1; test: Striatal pMSK-1 immunohistochemistry 1 h after single injection; format: in vivo, mouse; conditions: single injection 20 mg/kg i.p., individual mice
Description: as §1, §2

[5] = tested on: contextual fear memory; test: Contextual fear conditioning, Tg2576 and WT mice; format: in vivo, mouse; set-up: unit not given here; conditions: 7 months, 20 mg/kg i.p. 1 h before CFC, test 24 h later, individual mice
Description: Tg2576 mice were administered with RB5 or Scramble (20 mg/kg i.p.) for either 7 days, for IHC analysis, or with a single injection (20 mg/kg i.p.), for behavioral analysis.
7‐month‐old Tg2576 mice and WT mice were treated with either Scramble or RB5 (20 mg/kg, i.p.) 1 h before CFC. Mice were individually placed in the conditioning chamber for 120 s of free exploration followed by five foot‐shocks (0.7 mA, 2‐s duration, separated by 60‐s intervals) delivered through the grid floor. Context Fear Memory was assessed 24 h later by returning mice for 5 min to the conditioning chamber and not delivering a foot shock.
as §3

[6] = peptide 20 mg/kg i.p. twice a day plus 3-NP 50 mg/kg i.p. once a day
[7] = peptide 20 mg/kg i.p. twice a day plus saline

Substance | c-Fos positive cells in striatum [1] | Freezing behavior ([2]; LTM, 2 days) | Freezing behavior ([2]; PostUS) | Freezing behavior ([2]; PreUS) | Freezing behavior ([2]; STM, 3 h) | TUNEL positive cells in striatum [3, 6] | TUNEL positive cells in striatum [3, 7] | pMSK-1 positive cells in striatum [4] | Freezing behavior, contextual fear memory ([5]; Tg2576 mice) | Freezing behavior, contextual fear memory ([5]; WT mice)
SCR: ineffective Scramble version of RB5 containing a TAT sequence (GRKKRRQRRRPPRVGPGVPEGVGVAVFGVKEPGQTGDVGPVGE) [reference compound] | 461.905 and 395.238 and 423.81 and 380.952 and 419.048 and 352.381 and 438.095 and 376.19 and 604.762 and 404.762 and 590.476 and 552.381 and 490.476 and 290.476 | 33.3 (3×) and 58.3 and 16.7 (2×) | 16.7 (2×) and 50 (2×) and 33.3 and 0 | 0 | 33.3 (2×) and 41.7 and 16.7 and 25 and 8.3 | 360.976 and 175.61 and 179.533 and 215.44 and 403.95 and 136.585 and 370.732 | 87.8049 and 58.5366 and 107.72 and 89.7666 and 104.728 and 165.854 | 614.286 and 328.571 and 409.524 and 680.952 and 885.714 and 485.714 and 509.524 and 319.048 and 571.429 and 461.905 and 338.095 and 209.524 and 466.667 and 700 and 519.048 | 28.67 and 36 and 36.67 and 25.33 and 43.67 and 29.67 and 28 | 96.67 and 87.67 and 96.33 and 88.67 and 64 and 57.67 and 82.67
GRKKRRQRRRPPQGGGGGEPRRTEGVGPGVPGEVEMVKGQPFDV [RB5, six D-amino acids, acetylated N-terminus] | selectively activated and 771.429 and 809.524 and 757.143 and 976.19 and 723.81 and 795.238 and 914.286 and 857.143 and 814.286 and 852.381 and 738.095 and 761.905 and 961.905 and 728.571 | markedly enhanced and 33.3 and 58.3 and 83.3 and 50 | markedly enhanced and 83.3 and 66.7 | 0 | markedly enhanced and 58.3 and 75 and 91.7 and 50 and 66.7 | significantly reduced neuronal death and 87.8049 and 8.8692 and 39.0244 and 107.72 and 134.65 and 179.533 and 163.212 and 136.585 and 117.073 | 29.2683 and 60.9756 and 89.7666 and 81.606 and 71.8133 and 143.627 and 134.65 and 43.3604 | selectively activated and 947.619 and 433.333 and 542.857 and 395.238 and 690.476 and 838.095 and 642.857 and 1019.05 and 728.571 and 490.476 and 328.571 and 904.762 and 1233.33 and 671.429 | fully prevented the memory impairment and 56.33 and 63.67 and 67 and 57.33 and 84 and 76.33 and 95.67 and 82.67 | 93.33 and 94.33 and 78 and 88.33 and 70.33 and 78.33 and 85
